In article PMC11031590, “Narazaciclib, a novel multi-kinase inhibitor with potent activity against CSF1R, FLT3 and CDK6, shows strong anti-AML activity in defined preclinical models” (Scientific Reports, 2024):
Each block holds one compound with its values, some of them ahead of it.

Tests used:
[1] = test system: MV-4-11 subcutaneous xenograft; conditions: prior knowledge; cited from earlier work
AM8096 AML-PDX = assay: AM8096 systemic AML-PDX model; format: in vivo, NOD/scid mice; conditions: AM8096, quizartinib
Protocol: For systemic AML-PDX models, the model establishment and narazaciclib pharmacology experiment were performed essentially as described previously. Briefly, 2 × 10^6 AM7407 cells, or 2 × 10^6 AM7577 cells, or 2 × 10^6 AM5512 cells, or 1.65 × 10^6 AM8096 cells were inoculated intravenously into 4- to 5-week-old female NOD/scid mice for AML development. Engraftment was confirmed by the presence of circulating human CD45+ cells (anti-human CD45 antibody, Cat. 304038, Biolegend) in peripheral blood. Mice with successful engraftment of AML-PDX were randomized into different treatment groups (N = 6) and received their designated treatments. Narazaciclib was administrated orally or intraperitoneally at 10 mg/kg, or 30 mg/kg, or 100 mg/kg every day throughout the study, while Cytarabine was administrated intraperitoneally at 3 mg/kg every day. Following the initiation of designated treatments, leukemic burden was monitored by flow cytometry with anti-human CD45 antibody on the peripheral blood every week as well as on the peripheral blood, bone marrow cells and splenocytes of mice at sacrifice. Mice were sacrifice once the followings are observed: body weight loss over 20%, reduced motility and activity, labored breathing, ruffled coat, hunched back and severe dehydration.

[2] = test system: MV-4-11 subcutaneous xenograft; assay: MV-4-11 subcutaneous xenograft model; format: in vivo, NOD/scid mice; conditions: Azacitidine 3 mg/kg intraperitoneally twice per week for 3 weeks
Text: The subcutaneous cell line xenograft (CDX) models and systemic patient-derived xenograft (PDX) models of AML have been extensively described before. For the subcutaneous MV-4-11 CDX model, 5 × 10^6 MV-4-11 tumor cells harvested from exponential growth phase were mixed with Matrigel (1:1) and then inoculated into the right front flank region of 6- to 7-week-old female NOD/scid mice for tumor development. MV-4-11 tumor-bearing mice were randomized into 5 groups (N = 8) when their tumor volume reached approximately 100 mm^3 and received their designated treatments following randomization. Narazaciclib was administrated intraperitoneally at 100 mg/kg twice per week for 3 weeks, while Azacitidine was administrated intraperitoneally at 3 mg/kg twice per week for 3 weeks. For the subcutaneous Ba/F3-ETV6-CSF1R CDX model, 1 × 10^6 Ba/F3-ETV6-CSF1R tumor cells harvested from exponential growth phase were mixed with Matrigel (1:1) and then inoculated into the right front flank region of 6- to 8-week-old female NOD/scid mice for tumor development. Ba/F3-ETV6-CSF1R tumor-bearing mice were randomized into 5 groups (N = 6) when their tumor volume reached approximately 100 mm^3 and received their designated treatments following randomization. […] Tumor volume and body weight were measured at different time points and tumor growth inhibition (TGI) was used as index to determine the therapeutic efficacy.

Ba/F3-CSF1R cell line = assay: Ba/F3-CSF1R proliferation assay (CTG); format: cell-based, mouse; conditions: + 100 ng/ml CSF-1
Protocol: (§1) The recombinant Ba/F3 cell lines overexpressing human CSF1R, or human RBM6-CSF1R, or human ETV6-CSF1R were generated using a retrovirus vector (Kyinno Co., Ltd. Beijing). The recombinant Ba/F3 lines overexpressing human Kras G12C orEGFR-L718Q mutants, and different mutant variants of FLT3 were also similarly created as well. A standard proliferation assay via CTG readout was performed according to the vendor’s instructions (KYinno Biotechnology Co., Ltd. Beijing).

[3] = test system: Ba/F3-RBM6-CSF1R cell line; assay: Ba/F3-RBM6-CSF1R proliferation assay (CTG); format: cell-based, mouse; conditions: not requiring CSF1
Protocol: as §1

Compound: CCc1nc(C(N)=O)c(Nc2ccc(N3CCC(N4CCN(C)CC4)CC3)c(OC)c2)nc1NC1CCOCC1 [gilteritinib]
response of MV-4-11 to FLT3i [1]: responded

Compound: CC(C)(C)c1cc(NC(=O)Nc2ccc(-c3cn4c(n3)sc3cc(OCCN5CCOCC5)ccc34)cc2)no1 [quizartinib, reference compound]
response of model (AM8096 AML-PDX): responded poorly
response of MV-4-11 to FLT3i [1]: responded

Compound: CNC(=O)c1cc(Oc2ccc(NC(=O)Nc3ccc(Cl)c(C(F)(F)F)c3)cc2)ccn1 [sorafenib]
response of MV-4-11 to FLT3i [1]: responded

Compound: Nc1ncn([C@@H]2O[C@H](CO)[C@@H](O)[C@H]2O)c(=O)n1 [Azacitidine, reference compound]
anti-AML effect (tumor growth) [2]: little anti-AML effect

IC50 (Ba/F3-CSF1R cell line): 59.5 nM
IC50 [3]: 344 nM
Compound: COc1ccc(COc2ccc(Cc3cnc(N)nc3N)cc2OC)cc1 [GW2580, reference compound]

IC50 (Ba/F3-CSF1R cell line; Mus musculus): ~3.88 nM
IC50 ([3]; Mus musculus): 147 nM
Compound: FC(F)(F)c1ccc(CNc2ccc(Cc3c[nH]c4ncc(Cl)cc34)cn2)cn1 [Pexidartinib, pexidartinib, reference compound]
